In patent US11351209B2 (priority 2016, dated 2022):
Entries after “also recorded” stand apart in the source; their conditions may differ.

Columns and labels:
CT26 flank tumours = experiment: Efficacy study, oral IC87114 and intravenous VVL15, CT26 flank tumours; type: in vivo, BALB/c mice; details: IC87114 50 mg kg^−1 oral gavage three hours before intravenous 1×10^8 PFU VVL15 (Group D), days 8, 11, 13, vs all other groups
orthotopic 4T1 tumours = experiment: Efficacy study, oral IC87114 and intravenous VVL15, orthotopic 4T1 tumours; type: in vivo, BALB/c mice; details: 4T1 orthotopic; IC87114 75 mg kg^−1 oral gavage three hours before intravenous 1×10^8 PFU VVL15 (Group D), days 12, 15, 17; vs all other groups

Cc1ccccc1-n1c(Cn2cnc3c(N)ncnc32)nc2cccc(C)c2c1=O [IC87114, 2-[(6-amino-9H-purin-9-yl)methyl]-5-methyl-3-(2-methylphenyl)-4(3H)-quinazolinone]
tumour burden (CT26 flank tumours): significantly reduces the tumour burden; also recorded: significantly less tumour burden; also recorded: reduced tumour burden | tumour burden (orthotopic 4T1 tumours): significantly reduces the tumour burden; also recorded: significantly less tumour burden; also recorded: reduced tumour burden
